Results reported in US7129361B2, “Thienylazolylalkoxyethanamines, their preparation and their application as medicaments” (Laboratorios del Dr. Esteve, S.A., priority 1998, dated 2006).

System: Male Swiss mice
Test: Analgesic activity: inhibition of contortions induced by phenylbenzoquinone in mice (Siegmund method)
Type: in vivo
Settings: 160 mg/Kg, oral administration, 60 minutes before i.p. phenylbenzoquinone; contortions counted for 15 minutes; versus vehicle control
Experimental: Analgesic Activity: Inhibition of Contortions Induced by Phenylbenzoquinone in Mice
The method described by Siegmund (E. Siegmund, et al, Proc. Exp. Biol. Med., 1957, 95, 729) has been used. Male Swiss mice are used, weighing between 17 and 22 grams and in groups of at least four animals.
The contortions are induced by injecting i.p. phenyl-p-benzoquinone (25 ml/Kg of a solution of 0.02% ethanol/water −5% v/v—with Evans blue at a mixing ratio of 0.1% p/v). The contortions are counted for 15 minutes after the moment of the injection. The products to be tested are suspended in Arabic gum (5% p/v) and distilled water and administered orally, at a dosage of 160 mg/Kg, 60 minutes before the phenylbenzoquinone injection. The inhibition of contortions produced by each product is determined, taking the contortions of a group of animals given a control as a reference. These animals only receive the vehicle orally, 60 minutes before administration of phenylbenzoquinone.

Row | Structure (SMILES) | % Inhibition of contortions [%]
1 | CC(=O)Oc1ccccc1C(=O)O [Acetylsalicylic acid, reference compound] | 51
2 | CN(C)CCOC(c1cccs1)c1ccnn1C (stereo not drawn) [Example 1, 5-{α-[2-(dimethylamino)ethoxy]-2-thienylmethyl}-1-methyl-1H-pyrazol] | 71
3 | CN(C)CCOC(c1cccs1)c1ccnn1C.O=C(O)CC(O)(CC(=O)O)C(=O)O (stereo not drawn) [Example 13, Citrate of (−)-5-{α-[2-(dimethylamino)ethoxy]-2-thienylmethyl}-1-methyl-1H-pyrazol] | 87
4 | Cc1ccsc1C(OCCN(C)C)c1ccnn1C (stereo not drawn) [Example 5, 5-{α-[2-(dimethylamino)ethoxy]-3-methyl-2-thienylmethyl}-1-methyl-1H-pyrazol] | 45
5 | CN(C)CCOC(c1cccs1)c1ccnn1C.O=C(O)CC(O)(CC(=O)O)C(=O)O (stereo not drawn) [Example 12, Citrate of (+)-5-{α-[2-(dimethylamino)ethoxy]-2-thienylmethyl}-1-methyl-1H-pyrazol] | 52
6 | CN(C)CCOC(C)(c1cccs1)c1ccnn1C (stereo not drawn) [Example 9, 5-{1-[2-(dimethylamino)ethoxy]-1-(2-thienyl)ethyl}-1-methyl-1H-pyrazol] | 37
7 | CC(=O)Nc1ccc(O)cc1 [N-acetyl-p-aminophenol, reference compound] | 34
8 | CN(C)CCOC(c1cccs1)c1ccnn1C.O=C(O)CC(O)(CC(=O)O)C(=O)O (stereo not drawn) [Example 2, Citrate of 5-{α-[2-(dimethylamino)ethoxy]-2-thienylmethyl}-1-methyl-1H-pyrazol] | 65

System: not given
Test: not given
Settings: not given

Row | Structure (SMILES) | melting point [°C]
9 | Cn1nccc1C(C)(O)c1cccs1 (stereo not drawn) [Example 21, 5-[1-hydroxy-1-(2-thienyl)ethyl]-1-methyl-1H-pyrazol] | 130 to 131
